Source: patent publication EP0100257A2, “Aminoalkyl naphthalene derivatives, their salts, process for their preparation and the therapeutical use of these derivatives and salts” (DELALANDE S.A., priority 1982, dated 1984)

Key:
[1] = Acute toxicity (DL 50) in mice; conditions: in vivo, ip, mouse, i.p., read-out: DL 50 souris
Text: Pour illustrer l'invention, on a rassemblé dans le tableau III ci-après les résultats obtenus dans ces deux tests avec quelques composés selon l'invention. Ce tableau donne en outre la toxicité aiguë (DL 50) des composés testés.

[2] = tested on: souris; test: Phenylbenzoquinone test (analgesic activity), protocol of Siegmund; assay type: in vivo; conditions: ip, mouse, i.p., read-out: Propriétés analgésiques DE 50
[3] = tested on: souris; test: Antagonism of reserpine-induced ptosis (antidepressant activity), protocol of Gouret and Thomas; assay type: in vivo; conditions: ip, 1 h; mouse, i.p.; ptosis observed one hour after reserpine 2 mg/kg i.v.; read-out: Propriétés antidépressives DE 50
Experimental: L'activité antidépressive a quant à elle été mise en évidence chez la souris par le test de l'antagonisme vis-à-vis du ptosis observé une heure après une injection intraveineuse (2 mg/kg) de réserpine chez la souris selon le protocole décrit par C.

| SMILES | LD50 [1] [mg/kg] | ED50 [2] [mg/kg] | ED50 [3] [mg/kg] |
| --- | --- | --- | --- |
| NCCc1cc(-c2ccccc2)c2ccccc2c1 [Numéro de code 9, chlorhydrate de l'(amino-2) éthyl-2 phényl-4 naphtalène] | 58 | 2.2 | 3 |
| CN(C)Cc1cc(-c2ccccc2)c2ccccc2c1 [Numéro de code 2, chlorhydrate de N,N-diméthylaminométhyl-2 phényl-4 naphtalène] | 70 | 4.5 | 5.3 |
